Source: US6897214B2, “Quinazoline derivatives” (Zeneca Limited, priority 1996, dated 2005)

Experiments:
[1] = tested on: human naso-pharyngeal cancer cell line KB; assay: Test (b): in vitro inhibition of EGF-stimulated growth of KB cells; type: cell-based; conditions: EGF (10 ng/ml) stimulated growth, MTT
Description: (b) An in vitro assay which determines the ability of a test compound to inhibit the EGF-stimulated growth of the human naso-pharyngeal cancer cell line KB.
KB cells were seeded into wells at a density of 1×10^4-1.5×10^4 cells per well and grown for 24 hours in DMEM supplemented with 5% FCS (charcoal-stripped). Cell growth was determined after. incubation for 3 days by the extent of metabolism of MTT tetrazolium dye to furnish a bluish colour. Cell growth was then determined in the presence of EGF (10 ng/ml) or in the presence of EGF (10 ng/ml) and a test compound at a range of concentrations. An IC50 value could then be calculated.

[2] = tested on: xenografts of the human vulval epidermoid carcinoma cell line A-431; assay: Test (d): in vivo inhibition of growth of A-431 xenografts in athymic nude mice; conditions: dosage of 50 mg/kg/day
Description: (d) An in-vivo assay in a group of athymic nude mice (strain ONU:Alpk) which determines the ability of a test compound (usually administered orally as a ball-milled suspension in 0.5% polysorbate) to inhibit the growth of xenografts of the human vulval epidermoid carcinoma cell line A-431.
A-431 cells were maintained in culture in DMEM supplemented with 5% FCS and 2 mM glutamine. Freshly cultured cells were harvested by trypsinization and injected subcutaneously (10 million cells/0.1 ml/mouse) into both flanks of a number of donor nude mice. When sufficient tumour material was available (after approximately 9 to 14 days), fragments of tumour tissue were transplanted into the flanks of recipient nude mice (test day 0). Generally, on the seventh day after transplantation (test day 7) groups of 7 to 10 mice with similar-sized tumours were selected and dosing of the test compound was commenced. Once-daily dosing of test compound was continued for a total of 13 days (test days 7 to 19 inclusive). In some studies the dosing of the test compound was continued beyond test day 19, for example to test day 26. In each case, on the following day the animals were killed and final tumour volume was calculated from measurements of the length and width of the tumours. Results were calculated as a percentage inhibition of tumour volume relative to untreated controls.

[3] = target: T1, EGF receptor tyrosine kinase (Homo sapiens, UniProt P00533); assay: Test (a): in vitro inhibition of the enzyme EGF receptor tyrosine kinase; type: biochemical; conditions: enzyme partially purified from A-431 cells
T1 construct: Receptor tyrosine kinase was obtained in partially purified form from A-431 cells; endogenous in cells; host or cells: A-431 cells (human vulval carcinoma), solubilised membrane preparation
T1 sequence (P00533 25-1210): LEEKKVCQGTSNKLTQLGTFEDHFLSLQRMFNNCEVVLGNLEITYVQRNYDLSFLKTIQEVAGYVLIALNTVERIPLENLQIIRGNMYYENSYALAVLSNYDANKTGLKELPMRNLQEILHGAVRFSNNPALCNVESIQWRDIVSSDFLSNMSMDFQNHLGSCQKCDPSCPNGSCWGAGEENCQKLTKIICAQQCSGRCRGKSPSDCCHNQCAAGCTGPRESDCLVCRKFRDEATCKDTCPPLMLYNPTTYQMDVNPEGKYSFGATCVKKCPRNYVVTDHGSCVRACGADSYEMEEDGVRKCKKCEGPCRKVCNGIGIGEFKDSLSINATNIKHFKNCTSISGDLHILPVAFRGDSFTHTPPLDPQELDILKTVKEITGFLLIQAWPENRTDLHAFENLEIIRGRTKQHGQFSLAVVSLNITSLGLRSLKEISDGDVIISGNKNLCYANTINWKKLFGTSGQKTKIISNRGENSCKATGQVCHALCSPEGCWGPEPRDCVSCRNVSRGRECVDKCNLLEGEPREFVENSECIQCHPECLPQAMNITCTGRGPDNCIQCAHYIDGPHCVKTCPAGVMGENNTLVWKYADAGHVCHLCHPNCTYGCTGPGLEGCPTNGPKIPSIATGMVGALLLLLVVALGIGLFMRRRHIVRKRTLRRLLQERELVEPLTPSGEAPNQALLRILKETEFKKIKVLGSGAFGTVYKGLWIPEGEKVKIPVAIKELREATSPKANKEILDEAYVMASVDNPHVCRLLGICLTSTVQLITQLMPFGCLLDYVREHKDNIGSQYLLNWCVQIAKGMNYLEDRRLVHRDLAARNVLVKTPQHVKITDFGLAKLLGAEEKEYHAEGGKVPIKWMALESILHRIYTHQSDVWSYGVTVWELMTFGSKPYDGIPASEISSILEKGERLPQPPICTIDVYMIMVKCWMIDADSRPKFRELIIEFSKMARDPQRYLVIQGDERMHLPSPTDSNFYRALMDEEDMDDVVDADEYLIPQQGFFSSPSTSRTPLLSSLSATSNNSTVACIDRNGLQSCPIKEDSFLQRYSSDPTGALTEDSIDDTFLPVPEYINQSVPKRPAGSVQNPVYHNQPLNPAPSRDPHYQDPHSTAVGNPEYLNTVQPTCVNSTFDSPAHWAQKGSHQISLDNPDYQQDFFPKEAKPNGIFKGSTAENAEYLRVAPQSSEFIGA
Description: (a) An in vitro assay which determines the ability of a test compound to inhibit the enzyme EGF receptor tyrosine kinase. Receptor tyrosine kinase was obtained in partially purified form from A-431 cells (derived from human vulval carcinoma) by the procedures described below which are related to those described by Carpenter et al, J. Biol. Chem., 1979, 254, 4884, Cohen et al., J. Biol. Chem., 1982, 257, 1523 and by Braun et al., J. Biol Chem., 1984, 259, 2051.
A-431 cells were grown to confluence using Dulbecco's modified Eagle's medium DMEM) containing 5% fetal calf serum (FCS). The obtained cells were homogenised in a hypotonic borate/EDTA buffer at pH 10.1. The homogenate was centrifuged at 400 g for 10 minutes at 0-4° C. The supernatant was centrifuged at 25,000 g for 30 minutes at 0-4° C. […]
The test compound/EGF mixture solution (5 μl) was added to the test enzyme solution (10 μl) and the mixture was incubated at 0-4° C. for 30 minutes. […] Radioactivity present in the filter paper was measured using a liquid scintillation counter (Sequence A). […]
Receptor tyrosine kinase inhibition was calculated as follows: [formula]
The extent of inhibition was then determined at a range of concentrations of test compound to give an IC50 value.

[4] = tested on: transplanted human mammary carcinoma; conditions: cited from earlier work

`Cl.O=C(Nc1ccc2ncnc(Nc3ccc(F)c(Cl)c3)c2c1)c1cccs1` showed a melting point greater than 250 °C.
With `Cl.O=C(Nc1ccc2ncnc(Nc3ccc(F)c(Cl)c3)c2c1)c1ccno1` the melting point was greater than 250 °C.
For `N#Cc1ccc(-c2ccc3ncnc(Nc4ccc(F)c(Cl)c4)c3c2)cc1` [Example 1, 4-(3-chloro-4-fluoroanilino)-6-(4-cyanophenyl)quinazoline], the melting point was greater than 250 °C.
For `Cc1cccc(Nc2ncnc3ccc(-c4ccccc4)cc23)c1` [Example 2, 4-(3-methylanilino)-6-phenylquinazoline], the melting point was 207 to 209 °C.
Compound `Fc1ccc(Nc2ncnc3ccc(-c4ccco4)cc23)cc1Cl` [Example 5, 4(3-chloro-4-fluoroanilino)-6-(2-furyl)quinazoline] has a melting point of 232 to 234 °C.
Compound `Fc1ccc(Nc2ncnc3ccc(-c4cccs4)cc23)cc1Cl` [Example 6, 4-(3-chloro-4-fluoroanilino)-6-(2-thienyl)quinazoline] has a melting point of 205 to 208 °C.
With `Fc1ccc(Nc2ncnc3ccc(-c4ccsc4)cc23)cc1Cl` [Example 7, 4-(3-chloro-4-fluoroanilino)-6-(3-thienyl)quinazoline] the melting point was 195 to 197 °C.
With `Fc1ccc(Nc2ncnc3ccc(-c4ccc(CCN5CCOCC5)s4)cc23)cc1Cl` [Example 8, 4-(3-chloro-4-fluoroanilino)-6-[5-(2-morpholinoethyl)thien-2-yl]quinazoline] the IC50 [1] was 0.19 µM, the “inhibition in Test (d) (tumour volume relative to untreated controls)” value [2] was 64% and the IC50 [3] was 0.04 µM.
`Cc1cccc(Nc2ncnc3ccc(Nc4ncc[nH]4)cc23)c1` [Example 14, 6-(2-imidazolylamino)-4-(3-methylanilino)quinazoline] gave a melting point of 256 to 258 °C.
`Cc1cccc(Nc2ncnc3ccc(NS(=O)(=O)c4cn(C)cn4)cc23)c1` [Example 15, 4-(3-methylanilino)-6-(1-methylimidazole-4-sulphonamido)quinazoline] gave a melting point greater than 250 °C.
`Cc1cccc(Nc2ncnc3ccc(NCc4ccsc4)cc23)c1` [Example 16, 4-(3-methylanilino)-6-(3-thienylmethylamino)quinazoline] showed a melting point of 207 to 208 °C.
`Fc1ccc(Nc2ncnc3ccc(NCc4cccs4)cc23)cc1Cl` [Example 19, 4-(3-chloro-4-fluoroanilino)-6-(2-thienylmethylamino)quinazoline] showed a melting point of 193 to 195 °C.
`CNc1cc2ncnc(Nc3ccc(F)c(Cl)c3)c2cc1NC(=O)c1cccnc1` [Example 24, 4-(3-chloro-4-fluoroanilino)-7-methylamino-6-(pyridine-3-carboxamido)quinazoline] showed a melting point greater than 260 °C.
With `Cc1cccc(Nc2ncnc3ccc(CSc4c[nH]nn4)cc23)c1` [Example 34, 4-(3-methylanilino)-6-(1,2,3-triazol-4-ylthiomethyl)quinazoline] the melting point was 64 to 68 °C.
In the case of `Cc1cccc(Nc2ncnc3ccc(CSc4nccn4C)cc23)c1` [Example 35, 4-(3-methylanilino)-6-(N-methylimidazol-2-ylthiomethyl)quinazoline], the melting point is reported as 137 to 139 °C.
`Cc1cccc(Nc2ncnc3ccc(CSc4ncc[nH]4)cc23)c1` [Example 36, 6-(2-imidazolylthiomethyl)-4-(3-methylanilino)-quinazoline] gave a melting point of 217 to 219 °C.
In the case of `Cc1cccc(Nc2ncnc3ccc(CSc4nc5ccccc5[nH]4)cc23)c1` [Example 37, 6-(2-benzimidazolylthiomethyl)-4-(3-methylanilino)quinazoline], the melting point is reported as 123 to 129 °C.
In the case of `Cc1cc(Nc2ncnc3ccc(-c4cccs4)cc23)ccc1OCc1ccccn1` [Example 38, 4-[3-methyl-4-(2-pyridylmethoxy)anilino]-6-(2-thienyl)-quinazoline], the melting point is reported as 205 to 206 °C.
For `Cc1cc(Nc2ncnc3ccc(-c4ccoc4)cc23)ccc1OCc1ccccn1` [Example 39, 6-(3-furyl)-4-[3-methyl-4-(2-pyridylmethoxy)anilino]-quinazoline], the melting point was 206 to 208 °C.
In the case of `O=CN/C=C/c1cc(O)ccc1O` [erbstatin], the “growth of another carcinoma” value ([4]; carcinoma which does not express EGF receptor tyrosine kinase) is given as “without effect on the growth” and the “growth of transplanted human mammary carcinoma” value ([4]; carcinoma which expresses EGF receptor tyrosine kinase, athymic nude mice) is given as “specifically attenuates the growth”.
